Reference: US7713994B2 (Wyeth LLC, priority 2005, dated 2010)

How the values were obtained:
HCT-116 = test: Cytotoxicity assay (SRB), HCT-116; type: cell-based; settings: Homo sapiens, HCT-116, 72 h, HCT116 cells, SRB, three days; read-out: In Vitro Cellular Activity IC50 HCT116
In short: (§1)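 Cells were seeded overnight in RPMI 1640 with 5% FBS at 37 °C, 7% CO2 (12000/well BT474, 4000 HCT-116, 6000 LoVo, 6000 MCF-7), then exposed to compound dilutions for 3 days (6 days for BT474). Survival versus untreated controls was measured by TCA fixation and SRB staining at 540 nm.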

cyclin D1/cdk 4 enzyme = target: T1, cyclin D1/cdk 4 enzyme (Homo sapiens, UniProt P11802); test: CDK4 ELISA kinase assay (phospho-Rb ser 795 detection); type: biochemical; settings: In Vitro Enzyme Assays, 200 μM ATP, read-out: CDK4 IC50
T1 construct: made in house; host or cells: Sf9 insect cells, recombinant baculovirus
T1 sequence (P11802 whole entry, species assumed): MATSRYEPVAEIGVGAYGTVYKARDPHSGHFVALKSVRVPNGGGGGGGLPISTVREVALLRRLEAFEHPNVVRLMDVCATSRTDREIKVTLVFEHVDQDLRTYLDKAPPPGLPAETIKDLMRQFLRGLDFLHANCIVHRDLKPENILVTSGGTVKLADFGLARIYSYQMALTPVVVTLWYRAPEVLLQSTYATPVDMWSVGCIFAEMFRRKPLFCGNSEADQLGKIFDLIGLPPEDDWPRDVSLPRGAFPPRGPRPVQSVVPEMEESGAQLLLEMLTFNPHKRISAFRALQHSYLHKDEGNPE
T1 sequence (P24385 whole entry partner, species assumed): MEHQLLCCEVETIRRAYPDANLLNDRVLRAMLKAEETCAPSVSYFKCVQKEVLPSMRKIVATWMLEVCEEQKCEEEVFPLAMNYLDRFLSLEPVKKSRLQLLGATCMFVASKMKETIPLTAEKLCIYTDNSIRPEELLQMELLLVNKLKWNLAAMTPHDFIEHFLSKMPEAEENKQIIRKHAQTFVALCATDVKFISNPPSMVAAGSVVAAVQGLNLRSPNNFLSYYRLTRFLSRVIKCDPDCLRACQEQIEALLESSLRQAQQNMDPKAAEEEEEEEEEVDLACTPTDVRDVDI
In short: (§2)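 Screening was done at 10 ug/ml compound. Each partially purified cyclin/CDK complex, produced in baculovirus-infected Sf9 cells, phosphorylated a coated GST-Rb C-terminal fragment with 200 μM ATP, and Ser795 phosphorylation was quantified by HRP-ELISA at 450 nm.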

BT474 = test: Cytotoxicity assay (SRB), BT474; type: cell-based; settings: Homo sapiens, BT-474, 144 h, BT474 cells, SRB, 6 days; read-out: In Vitro Cellular Activity IC50 BT474
In short: as §1

cyclin B/CDK1 enzyme = target: T2, cyclin B/CDK1 enzyme (Homo sapiens, UniProt P06493); test: CDK1 ELISA kinase assay (phospho-Rb ser 795 detection); type: biochemical; settings: In Vitro Enzyme Assays, read-out: CDK1 IC50
T2 construct: purchased New England BioLabs; host or cells: Sf9 insect cells, recombinant baculovirus
T2 sequence (P06493 whole entry): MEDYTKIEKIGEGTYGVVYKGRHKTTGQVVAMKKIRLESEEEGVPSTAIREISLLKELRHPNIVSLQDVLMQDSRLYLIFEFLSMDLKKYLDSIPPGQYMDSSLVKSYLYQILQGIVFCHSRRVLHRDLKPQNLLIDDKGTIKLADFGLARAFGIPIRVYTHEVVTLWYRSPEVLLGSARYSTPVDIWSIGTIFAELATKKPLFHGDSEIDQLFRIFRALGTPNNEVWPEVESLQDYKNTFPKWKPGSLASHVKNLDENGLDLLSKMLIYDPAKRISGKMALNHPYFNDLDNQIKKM
T2 sequence (P14635 whole entry partner): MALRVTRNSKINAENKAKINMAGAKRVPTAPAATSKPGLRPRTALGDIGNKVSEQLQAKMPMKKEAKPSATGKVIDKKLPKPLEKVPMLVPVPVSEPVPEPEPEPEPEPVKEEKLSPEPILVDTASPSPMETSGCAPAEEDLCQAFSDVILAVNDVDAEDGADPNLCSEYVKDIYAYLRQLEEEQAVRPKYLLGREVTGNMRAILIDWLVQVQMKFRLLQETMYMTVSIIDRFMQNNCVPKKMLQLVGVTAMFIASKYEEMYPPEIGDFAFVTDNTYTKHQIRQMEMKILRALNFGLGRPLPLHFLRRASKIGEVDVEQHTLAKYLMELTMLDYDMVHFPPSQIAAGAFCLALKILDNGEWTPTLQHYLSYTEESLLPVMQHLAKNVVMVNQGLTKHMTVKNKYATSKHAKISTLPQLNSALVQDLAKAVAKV
In short: as §2

MCF-7 = test: Cytotoxicity assay (SRB), MCF-7; type: cell-based; settings: Homo sapiens, MCF7, 72 h, MCF-7 cells, SRB, three days; read-out: In Vitro Cellular Activity IC50 MCF-7
In short: as §1

LoVo = test: Cytotoxicity assay (SRB), LoVo; type: cell-based; settings: Homo sapiens, LoVo, 72 h, LoVo cells, SRB, three days; read-out: In Vitro Cellular Activity IC50 LOVO
In short: as §1

cyclin E/CDK2 enzyme = target: T3, cyclin E/CDK2 enzyme (Homo sapiens, UniProt P24941); test: CDK2 ELISA kinase assay (phospho-Rb ser 795 detection); type: biochemical; settings: In Vitro Enzyme Assays, read-out: CDK2 IC50
T3 construct: made in house; host or cells: Sf9 insect cells, recombinant baculovirus
In short: as §2

IC50 (cyclin D1/cdk 4 enzyme) [µM]	melting point	IC50 (cyclin B/CDK1 enzyme) [µM]	IC50 (cyclin E/CDK2 enzyme) [µM]	Structure (SMILES)	IC50 (HCT-116) [µM]	IC50 (BT474) [µM]	IC50 (MCF-7) [µM]	IC50 (LoVo) [µM]
24.7	275 to 276 °C	> 50	12.3	O=C1NC(=O)c2ccc(I)cc2/C1=C/Nc1ccc(Cn2ccnc2)cc1 [Example 273, (4Z)-4-({[4-(1H-Imidazol-1-ylmethyl)phenyl]amino}methylene)-6-iodoisoquinoline-1,3(2H,4H)-dione]	3	7.5	13	7.9
0.03	215 to 216 °C (dec.)	> 50	> 50	CCCOc1ccc(CNC=C2C(=O)NC(=O)c3ccc(-n4cccc4)cc32)cc1O [Example 278, 4-[(3-Hydroxy-4-propoxy-benzylamino)-methylene]-6-pyrrol-1-yl-4H-isoquinoline-1,3-dione]	2.9	5	6.3	4.7
27.7	176 to 177 °C	> 50	> 50	O=C1NC(=O)c2ccc(-c3ccc(C(F)(F)F)cc3)cc2/C1=C/Nc1ccc(CN2CCCC2)cc1 [Example 282, (4Z)-4-({[4-(Pyrrolidin-1-ylmethyl)phenyl]amino}methylene)-6-[4-(trifluoromethyl)phenyl]isoquinoline-1,3(2H,4H)-dione]	1.1	3	1.1	2.7
3	209 to 210 °C	> 50	> 50	O=C1NC(=O)c2ccc(Br)cc2/C1=C/Nc1ccc(CN2CCOCC2)cc1 [Example 286, (4Z)-6-Bromo-4-({[4-(morpholin-4-ylmethyl)phenyl]amino}methylene)isoquinoline-1,3(2H,4H)-dione]	5.8	16	5.5	11
1.6	183 to 184 °C	> 50	> 50	CC1CCCN1Cc1ccc(N/C=C2\C(=O)NC(=O)c3ccc(Br)cc32)cc1 (stereo not drawn) [Example 287, (4Z)-6-Bromo-4-[({4-[(2-methylpyrrolidin-1-yl)methyl]phenyl}amino)methylene]-isoquinoline-1,3(2H,4H)-dione]	4.2	1.3	1.7	5.4
2.9	206 to 207 °C	> 50	> 50	CN1CCN(c2ccc(N/C=C3\C(=O)NC(=O)c4ccc(Br)cc43)cc2F)CC1 [Example 288, (4Z)-6-Bromo-4-({[3-fluoro-4-(4-methylpiperazin-1-yl)phenyl]amino}methylene)-isoquinoline-1,3(2H,4H)-dione]	1.7	1.8	1.5	2
0.31	165 to 166 °C	> 50	> 50	CC1CCCN1Cc1ccc(N/C=C2\C(=O)NC(=O)c3ccc(-c4ccc(F)cc4)cc32)cc1 (stereo not drawn) [Example 289, (4Z)-6-(4-Fluorophenyl)-4-[({4-[(2-methylpyrrolidin-1-yl)methyl]phenyl}amino)-methylene]isoquinoline-1,3(2H,4H)-dione]	2.2	1.3	0.9	7.4
0.32	166 to 167 °C	> 50	> 50	CN1CCN(c2ccc(N/C=C3\C(=O)NC(=O)c4ccc(-c5ccc(F)cc5)cc43)cc2F)CC1 [Example 290, (4Z)-4-({[3-Fluoro-4-(4-methylpiperazin-1-yl)phenyl]amino}methylene)-6-(4-fluorophenyl)isoquinoline-1,3(2H,4H)-dione]	1.8	2.5	2.3	5.4
0.19	165 to 166 °C	> 50	> 50	CC1CCCN1Cc1ccc(N/C=C2\C(=O)NC(=O)c3ccc(-c4ccoc4)cc32)cc1 (stereo not drawn) [Example 291, (4Z)-6-(3-Furyl)-4-[({4-[(2-methylpyrrolidin-1-yl)methyl]phenyl}amino)methylene]-isoquinoline-1,3(2H,4H)-dione]	2.3	1	0.59	1.9
1.5	211 to 212 °C	> 50	> 50	CN1CCN(c2ccc(N/C=C3\C(=O)NC(=O)c4ccc(I)cc43)cc2F)CC1 [Example 295, (4Z)-4-({[3-Fluoro-4-(4-methylpiperazin-1-yl)phenyl]amino}methylene)-6-iodoisoquinoline-1,3(2H,4H)-dione]	3.1	3.1	1.8	3.7
2.1	186 to 187 °C	> 50	> 50	O=C1NC(=O)c2ccc(I)cc2/C1=C/Nc1ccc(CN2CCOCC2)cc1 [Example 296, (4Z)-6-Iodo-4-({[4-(morpholin-4-ylmethyl)phenyl]amino}methylene)isoquinoline-1,3(2H,4H)-dione]	4	6.2	2.6	5
0.08	203 to 204 °C	> 50	> 50	CN1CCN(c2ccc(N/C=C3\C(=O)NC(=O)c4ccc(-c5ccoc5)cc43)cc2F)CC1 [Example 297, (4Z)-4-({[3-Fluoro-4-(4-methylpiperazin-1-yl)phenyl]amino}methylene)-6-(3-furyl)isoquinoline-1,3(2H,4H)-dione]	2.2	1.2	0.95	2
0.19	162 to 163 °C	> 50	> 50	COC[C@@H]1CCCN1Cc1ccc(N/C=C2\C(=O)NC(=O)c3ccc(-c4ccc(F)cc4)cc32)cc1 [Example 299, (4Z)-6-(4-Fluorophenyl)-4-{[(4-{[(2S)-2-(methoxymethyl)pyrrolidin-1-yl]methyl}phenyl)amino]methylene}isoquinoline-1,3(2H,4H)-dione]	3	2	0.8	7.7
0.27	310 to 312 °C (dec.)	> 50	21.6	O=C1NC(=O)c2ccc(-n3cccc3)cc2C1=CNCc1cc(=O)c(O)co1 [Example 312, 4-{[(5-Hydroxy-4-oxo-4H-pyran-2-ylmethyl)-amino]-methylene}-6-pyrrol-1-yl-4H-isoquinoline-1,3-dione]	> 50	39	> 50	> 50
1.3	259 to 261 °C (dec.)	> 50	16.9	COc1coc(CNC=C2C(=O)NC(=O)c3ccc(Br)cc32)cc1=O [Example 316, 6-Bromo-4-{[(5-methoxy-4-oxo-4H-pyran-2-ylmethyl)-amino]-methylene}-4H-isoquinoline-1,3-dione]	8.9	4.9	9	5.7
0.04	251 to 254 °C (dec.)	> 50	> 50	COc1coc(CNC=C2C(=O)NC(=O)c3ccc(-n4cccc4)cc32)cc1=O [Example 317, 4-{[(5-Methoxy-4-oxo-4H-pyran-2-ylmethyl)-amino]-methylene}-6-pyrrol-1-yl-4H-isoquinoline-1,3-dione]	12	5.2	8.4	4.7
1.4	173 to 174 °C	> 50	> 50	C[C@@H]1CN(c2ccc(N/C=C3\C(=O)NC(=O)c4ccc(I)cc43)cc2F)C[C@H](C)N1 [Example 319, (4Z)-4-[({4-[(3R,5S)-3,5-Dimethylpiperazin-1-yl]-3-fluorophenyl}amino)methylene]-6-iodoisoquinoline-1,3(2H,4H)-dione]	1.5	3.1	2.6	2.1
0.17	222 to 223 °C	> 50	> 50	C[C@@H]1CN(c2ccc(N/C=C3\C(=O)NC(=O)c4ccc(-c5ccoc5)cc43)cc2F)C[C@H](C)N1 [Example 324, (4Z)-4-[({4-[(3R,5S)-3,5-Dimethylpiperazin-1-yl]-3-fluorophenyl}amino)methylene]-6-(3-furyl)isoquinoline-1,3(2H,4H)-dione]	0.96	0.74	0.83	3.3
